Assays:
[1] = tested on: human gastric cancer SNU-16 xenografts; conditions: mouse, in vivo
Protocol: (§1) The tumor tissue in the vigorous growth period was cut into 1.5 mm^3, and inoculated subcutaneously in the right axilla of nude mice under aseptic conditions. The diameter of the xenograft in nude mice was measured with a vernier caliper. The animals were randomly divided into groups when the average tumor volume was grown to about 190 mm^3. […] The diameter of the xenograft was measured twice a week during the entire experiment, and the body weight of the mice was weighed. The tumor volume (TV) was calculated as: TV=½×a×b^2, where a and b represented length and width, respectively. The relative tumor volume (RTV) was calculated based on the measured results, and the formula was: RTV=Vt/V0, wherein V0 represented the tumor volume obtained when the mice was divided and administered (i.e., d0), and Vt represented the tumor volume at each measurement. The anti-tumor activity evaluation index was the relative tumor proliferation rate T/C (%), and the calculation formula was as follows: T/C (%)=(TRTV/CRTV)×100%, wherein TRTV was TRV in treatment group; and CRTV was RTV in negative control group.

[2] = tested on: human gastric cancer SNU-16 xenografts; assay: Growth of subcutaneous xenografts of human gastric cancer SNU-16 in nude mice (comparative compounds study); conditions: for relative tumor proliferation rate T/C: day 21; for Weight (g, mean ± SD): SNU-16 tumor-bearing mice
Protocol: as §1

CN1CCN(Cc2ccc(NC(=O)c3ccc(Cl)c(C#Cc4cccnc4)c3)cc2C(F)(F)F)CC1 [HuFGFR1-117]
toxicity / condition of the mice (in words) [1]: dry skin, molting, and poor condition
Relative tumor volume RTV (mean ± SD) ([2]; SNU-16, 20 mg/kg orally once a day, d0): 1.00 ± 0.00
Relative tumor volume RTV (mean ± SD) ([2]; SNU-16, 20 mg/kg orally once a day, d3): 1.51 ± 0.37
Relative tumor volume RTV (mean ± SD) ([2]; SNU-16, 20 mg/kg orally once a day, d7): 1.75 ± 0.47
Relative tumor volume RTV (mean ± SD) ([2]; SNU-16, 20 mg/kg orally once a day, d10): 1.49 ± 0.14
Relative tumor volume RTV (mean ± SD) ([2]; SNU-16, 20 mg/kg orally once a day, d14): 2.06 ± 0.38
Relative tumor volume RTV (mean ± SD) ([2]; SNU-16, 20 mg/kg orally once a day, d17): 2.55 ± 0.55
Relative tumor volume RTV (mean ± SD) ([2]; SNU-16, 20 mg/kg orally once a day, d21): 2.78 ± 0.58
relative tumor proliferation rate T/C ([2]; SNU-16, 20 mg/kg orally once a day): 47.88%
animal deaths ([2]; SNU-16, 100 mg/kg group): one mouse died on the 9th and 10th day respectively
Relative tumor volume RTV (mean ± SD) ([2]; SNU-16, 100 mg/kg orally once a day (administration interrupted), d0): 1.00 ± 0.00
Relative tumor volume RTV (mean ± SD) ([2]; SNU-16, 100 mg/kg orally once a day (administration interrupted), d3): 1.53 ± 0.39
Relative tumor volume RTV (mean ± SD) ([2]; SNU-16, 100 mg/kg orally once a day (administration interrupted), d7): 0.80 ± 0.18
Relative tumor volume RTV (mean ± SD) ([2]; SNU-16, 100 mg/kg orally once a day (administration interrupted), d10): 0.49 ± 0.08
Relative tumor volume RTV (mean ± SD) ([2]; SNU-16, 100 mg/kg orally once a day (administration interrupted), d14): 0.51 ± 0.19
Relative tumor volume RTV (mean ± SD) ([2]; SNU-16, 100 mg/kg orally once a day (administration interrupted), d17): 0.75 ± 0.22
Relative tumor volume RTV (mean ± SD) ([2]; SNU-16, 100 mg/kg orally once a day (administration interrupted), d21): 0.83 ± 0.31
relative tumor proliferation rate T/C ([2]; SNU-16, 100 mg/kg orally, administration interrupted): 14.38%
weight of the tumor-bearing mice (in words) ([2]; SNU-16, HuFGFR1-113 at 20 mg/kg, HuFGFR1-117 dose not stated): significantly decreased
Weight (g, mean ± SD) ([2]; 20 mg/kg orally once a day, d0): 22.5 ± 1.9 g
Weight (g, mean ± SD) ([2]; 20 mg/kg orally once a day, d3): 23.6 ± 2.1 g
Weight (g, mean ± SD) ([2]; 20 mg/kg orally once a day, d7): 22.7 ± 2.0 g
Weight (g, mean ± SD) ([2]; 20 mg/kg orally once a day, d10): 22.7 ± 2.3 g
Weight (g, mean ± SD) ([2]; 20 mg/kg orally once a day, d14): 23.6 ± 2.4 g
Weight (g, mean ± SD) ([2]; 20 mg/kg orally once a day, d17): 24.2 ± 2.5 g
Weight (g, mean ± SD) ([2]; 20 mg/kg orally once a day, d21): 24.7 ± 2.3 g
Weight (g, mean ± SD) ([2]; 100 mg/kg orally once a day (administration interrupted), d0): 23.6 ± 0.7 g
Weight (g, mean ± SD) ([2]; 100 mg/kg orally once a day (administration interrupted), d3): 24.4 ± 1.8 g
Weight (g, mean ± SD) ([2]; 100 mg/kg orally once a day (administration interrupted), d7): 21.1 ± 1.9 g
Weight (g, mean ± SD) ([2]; 100 mg/kg orally once a day (administration interrupted), d10): 17.6 ± 1.8 g
Weight (g, mean ± SD) ([2]; 100 mg/kg orally once a day (administration interrupted), d14): 19.7 ± 2.0 g
Weight (g, mean ± SD) ([2]; 100 mg/kg orally once a day (administration interrupted), d17): 22.6 ± 1.5 g
Weight (g, mean ± SD) ([2]; 100 mg/kg orally once a day (administration interrupted), d21): 23.0 ± 2.4 g

Reference: US10988456B2, “O-aminoheteroaryl alkynyl-containing compound, preparation method therefor, and use thereof” (SHANGHAI INSTITUTE OF MATERIA MEDICA, CHINESE ACADEMY OF …, priority 2017, dated 2021)
